Reference: patent US20050038102A1, “Upregulation of type III endothelial cell Nitric Oxide Synthase by HMG-CoA reductase inhibitors” (BRIGHAM AND WOMENS HOSPITAL, priority 1997, published 2005)

Legend:
wild type mice = experiment: Regional cerebral blood flow by laser-Doppler flowimetry, wild type and simvastatin-treated mice; type: in vivo
Description: Regional cerebral blood flow (rCBF) was monitored by laser-Doppler flowimetry in groups of urethane-anesthetized, ventilated mice. Additional physiological variables were also monitored in the mice, including mean arterial blood pressure (MABP), heart rate, blood pH, PaO2, and PaCO2.
(§1) FIG. 5 is a bar graph showing regional CBF changes in wild type and eNOS null mice for 40 min after L-arginine (450 mg/kg) or saline infusion at a constant rate of 100 microliter/kg/min over 15 min. The number of mice in each group is indicated in parenthesis. Error bars denote standard error of the mean (SEM), and an asterisk (*) denotes statistically significant difference (P<0.05) compared with baseline control by one-way ANOVA followed by Fisher's protected least-squares difference test.
Error bars denote SEM and an asterisk (*) denotes statistically significant difference (P<0.05) compared with baseline control by one-way ANOVA followed by Fisher's protected least-squares difference test.

eNOS null mice = experiment: Regional cerebral blood flow by laser-Doppler flowimetry, eNOS null mice; type: in vivo; conditions: L-arginine 450 mg/kg, i.v., 40 minute recording period
Description: L-arginine infusion at 300 mg/kg, i.v., caused modest (10%) and variable elevations in regional cerebral blood flow (rCBF) after infusion in several preliminary experiments (n=4, data not shown). […] Regional cerebral blood flow (rCBF) was monitored by laser-Doppler flowimetry in groups of urethane-anesthetized, ventilated mice. Additional physiological variables were also monitored in the mice, including mean arterial blood pressure (MABP), heart rate, blood pH, PaO2, and PaCO2.
as §1

ecNOS protein = experiment: Western blotting of ecNOS protein levels in endothelial cells; type: cell-based, human; conditions: for increase in ecNOS protein levels / ecNOS expression / increase in ecNOS protein levels: 0.1 mmol/L alone
Description: Human endothelial cells were harvested from saphenous veins and cultured as described (15). For transfection studies, bovine aortic endothelial cells of less than 3 passages were cultured in a growth medium containing DMEM (Dulbecco's Modified Eagle's Medium), 5 mmol/L L-glutamine (Gibco), and 10% fetal calf serum (Hyclone Lot# 114577). For all experiments, the endothelial cells were placed in 10% lipoprotein-deficient serum (Sigma, Lot#26H9403 1) for 48 h prior to treatment conditions. […] Cellular viability as determined by cell count, morphology, and Trypan blue exclusion was maintained for all treatment conditions.
Cellular proteins were prepared and separated on SDS/PAGE as described (Liao, J K et al., J Biol Chem, 1995, 270:319-324.). Immunoblotting was performed using a murine monoclonal antibody to human ecNOS (1:400 dilution, Transduction Laboratories, Lexington, Ky.). Immunodetection was accomplished using a sheep anti-mouse secondary antibody (1:4000 dilution) and the enhanced chemiluminescence (ECL) kit (Amersham Corp., Arlington Heights, Ill.). Autoradiography was performed at 23° C. and the appropriate exposures were quantitated by densitometry.
Human endothelial cells were harvested from saphenous veins using Type II collagenase (Worthington Biochemical Corp., Freehold, N.J.) as previously described. Cells of less than three passages were grown to confluence in a culture medium containing Medium 199, 20 mM HEPES, 50 mg/ml ECGS (Collaborative Research Inc., Bedford, Mass.), […] heparin sulfate, 5 mM L-glutamine (Gibco), 5% fetal calf serum (Hyclone, Logan, Utah), and antibiotic mixture of penicillin (100 U/ml)/ streptomycin ([…])/Fungizone (1.25 mg/ml). For all experiments, the endothelial cells were grown to confluence before any treatment conditions. In some experiments, cells were pretreated with actinomycin D (5 mg/ml) for 1 h prior to treatment with HMG-CoA reductase inhibitors. […]

ecNOS = experiment: Assay for ecNOS activity (LNMA-inhibitable nitrite production); type: cell-based, human; conditions: higher concentration
wildtype SV-129 mice = experiment: Murine model of cerebral vascular ischemia (MCA occlusion), wild-type; type: in vivo; conditions: lovastatin treatment
Description: The neurological motor deficit score improved in simvastatin-treated mice (n-18) by almost 2-fold compared to that of controls (n=12) (0.8±0.2 vs. 1.7±0.2, p<0.01).

ecNOS mRNA [1] = experiment: ecNOS mRNA half-life in the presence of actinomycin D; type: cell-based, human
ecNOS mRNA [2] = experiment: Quantitative RT-PCR of ecNOS mRNA in mouse aortae and brains; type: in vivo, mice
[3] = 1 mmol/L alone (concentration series), 48 h
[4] = 10 mmol/L alone (concentration series), 48 h

Molecule: N=C(N)NCCC[C@H](N)C(=O)O [L-arginine]
- elevation in regional cerebral blood flow (rCBF) (wild type mice; L-arginine 300 mg/kg, i.v., preliminary experiments): 10%
- time at which increase in rCBF began (wild type mice; L-arginine 450 mg/kg, i.v., wild type mice): 5 to 10 min
- maximum increase in rCBF above baseline (wild type mice; L-arginine 450 mg/kg, i.v., wild type mice, at 20-25 min): 26%
- additional time for which rCBF increases were sustained (wild type mice; L-arginine infusion in simvastatin-treated mice): 20 min
- maximum increase in rCBF over simvastatin baseline (wild type mice; L-arginine infusion in simvastatin-treated mice, at 15-20 min): 29-31%
- rCBF change (eNOS null mice): −4 to +5%

Molecule: CC[C@H](C)C(=O)O[C@H]1C[C@@H](C)C=C2C=C[C@H](C)[C@H](CC[C@@H]3C[C@@H](O)CC(=O)O3)[C@H]21 [lovastatin]
- increase in ecNOS protein levels / ecNOS expression (ecNOS protein; 48 h): 10%
- increase in ecNOS expression (ecNOS protein; [3]): 105%
- increase in ecNOS expression (ecNOS protein; [4]): 180%
- potency in upregulating ecNOS protein levels, less potent than simvastatin (ecNOS protein; equimolar concentrations): 10 fold
- effect on ecNOS expression (ecNOS protein; not chemically-activated): had no effect on ecNOS expression
- concentration needed for similar findings, compared to that of simvastatin (ecNOS): 10 fold
- reduction of cerebral infarct size (wildtype SV-129 mice): also occurred with lovastatin treatment, albeit at higher relative concentrations

Molecule: CCC(C)(C)C(=O)O[C@H]1C[C@@H](C)C=C2C=C[C@H](C)[C@H](CC[C@@H]3C[C@@H](O)CC(=O)O3)[C@H]21 [simvastatin]
- increase in ecNOS expression (ecNOS protein; 0.01 mmol/L alone (series 0.01 to 10 mmol/L), 48 h): 1%
- increase in ecNOS protein levels (ecNOS protein; 12 h): 4%
- increase in ecNOS protein levels (ecNOS protein; 24 h): 21%
- increase in ecNOS protein levels / ecNOS expression (ecNOS protein; 48 h): 80%
- increase in ecNOS protein levels (ecNOS protein; 72 h): 90%
- increase in ecNOS protein levels (ecNOS protein; 84 h): 95%
- increase in ecNOS expression (ecNOS protein; [3]): 190%
- increase in ecNOS expression (ecNOS protein; [4]): 310%
- decrease in ecNOS protein level (ecNOS protein; simvastatin 0.1 mmol/L + ox-LDL 50 mg/ml, 24 h): 15%
- ecNOS protein levels increased above basal expression (ecNOS protein; simvastatin 0.1 mmol/L + ox-LDL 50 mg/ml, 72 h): 110%
- ecNOS protein levels increased above basal expression (ecNOS protein; simvastatin 0.1 mmol/L + ox-LDL 50 mg/ml, 96 h): 124%
- ecNOS expression above basal expression (ecNOS protein; simvastatin 1 mmol/L + ox-LDL 50 mg/ml (TBARS 15.1 nmol/mg), 48 h): 150%
- ecNOS protein levels above baseline (ecNOS protein; simvastatin 10 mmol/L + ox-LDL 50 mg/ml, 48 h): 210%±12%
- half-life of ecNOS mRNA (t½) (ecNOS mRNA [1]; simvastatin 0.1 mmol/L + ox-LDL): 22 ± 3 h
- half-life of ecNOS mRNA (t½) (ecNOS mRNA [1]; simvastatin alone): 43 ± 4 h
- increase in ecNOS expression in infarcted, ipsilateral hemisphere compared to contralateral side (ecNOS mRNA [2]; simvastatin 2 mg/kg, 14 days, brain, with respect to GAPDH mRNA): 1.5-to 2 fold
- increase of ecNOS message compared to that of GAPDH, aortae (ecNOS mRNA [2]; simvastatin-treated mice, dose-dependent): 3 fold
- increase in baseline rCBF (wild type mice; chronic daily administration of simvastatin alone): 25%

Molecule: L-mevalonate
- reduction of ecNOS protein compared to cells treated with ox-LDL and simvastatin (ecNOS protein; addition of L-mevalonate 100 mmol/L to ox-LDL + simvastatin 1 mmol/L): 50%±5%
- observable adverse effects on cellular morphology (human endothelial cell): no observable adverse effects
